The subject of data set [1] is Human RBCs. Nature of the data set: OSCN^−/OCN^− effects on intact RBC glutathione, enzymes and hemolysis. It counts as cell-based. Conditions: lysates and membranes of RBCs exposed to 100 μM OSCN^−/OCN^−; 10 mM DTT.
Procedure: After 30 minutes, cells were pelleted by centrifugation at 2000×g for 3 minutes and washed three times in ice-cold HEPES/Hanks' (H & H) buffer. […] RBC lysates and membranes were then prepared by hypotonic lysis and assayed for glutathione and glyceraldehyde-3-phosphate dehydrogenase (GAPDH), glutathione-S-transferase (GST), and lactate dehydrogenase (LDH) activity as described by Beutler (see Beutler (1974) Red Cell Metabolism A Manual of Biochemical Methods Grune and Stratton, Inc., Orlando, Fla.) and for ATPase activity as described below. Hemolysates were incubated for an additional 15 minute with or without 10 mM DTT and reassayed for GAPDH, GST, and ATPases.
Intracellular levels of the SH-containing oxidant scavenger glutathione were assayed. In addition, the activities of three enzymes, GST, GAPDH, and membrane ATPases, which are known to be vulnerable to SH-oxidation-based inactivation, as well as LDH which is not prone to such inactivation were assayed.
For data set [2] the following is noted: intranasal 1 mM SCN^−, 1 mM Br^− or 100 μM NO2^−.
Procedure: The following experiment is performed to determine if by directly manipulating the relative substrate halide composition of the intrabronchial luminal contents, the severity of the resulting EPO-mediated oxidative damage and so the severity of the induced pathologies can be influenced. […] From the day before initiation of aerosol ovalbumin challenge, four groups of guinea pigs (n=15) are subjected to intranasal instillation of 300 μL of PBS (100 mM Cl^−), PBS+1 mM NaSCN, PBS+1 mM NaBr, or PBS+100 μmol NaNO2 in each nostril. Intranasal instillation is performed every 6 hours until the time of analysis. The numbers of animals in each group is determined from power calculations assuming unpaired design. A group size of 15 animals per group allows for detecting a change in Br—Y, PC50, and histologic severity index amongst the OVA-challenged animal of ≧125% of the S.D. of the experimental groups with 90% power, P<0.05.
As for Section VI, Example 10, pulmonary functions, and chloro-, bromo-, and NO2—Y in BAL and whole lung homogenates are determined. […] Multiple linear regression is used to determine factors responsible for changes in PC50 or histologic severity of airway damage. PC50 or histologic severity is treated as a continuous variable and correlated Br—Y and NO2—Y levels in BAL and whole lung by multiple regression.
The subject of data set [3] is RBC ATPases. The experiment in a line: Oxidant inactivation of RBC membrane ATPase activity. The conditions noted are these: even at 1 mM. It is filed as biochemical, human.
Source text: Membrane preparations rather than intact RBC were used to allow all oxidants equal access to intra- and extracellular membrane components.
Data set [4] deals with S. mansoni schistosomules. The experiment in a line: Toxicity of hypohalous acids for schistosomules. It is filed as cell-based. Conditions: for toxicity for the parasite relative to host cells: schistosomules vs mammalian cells; for LD50 for schistosomules: two hours exposure. The protocol: (§1) To determine how generation of HOSCN subserves the physiological function of EOs, i.e., to destroy tissue-invasive parasites, the following experiment was performed. Reagent grade HOSCN was generated by (i) adding human EPO (10 μg/mL) and 1 mM NaSCN to Hank's buffer, (ii) adding five 100 μM boluses of H2O2 at 3 minute intervals, (iii) adding 20 μg/mL of catalase to consume unreacted H2O2, and (iv) removing protein by filtration through a PM-10 membrane (Amicon). HOSCN was then assayed by TNB titration. Mammalian cells used included cultured human and porcine aortic endothelium, rat cardiac myocytes, P338D1 murine lymphoma, and RBCs. Freshly transformed S. mansoni schistosomules (obtained from James Kazura at Case Western University) were also used. Both were exposed to reagent HOSCN for two hours, then assayed for cytotoxicity by (i) ^51Cr release, (ii) hemolysis (mammalian cells) or (iii) light microscopy observations of granularity, lack of motion, and methylene blue dye exclusion (somules). Results in Table 1 indicate that HOSCN killed both schistosomules and host cells. Whereas HOCl and HOBr were equally toxic for host cells and somules, HOSCN was 10-15 times more toxic for the parasite.

Data set [5] concerns mammalian cells. Nature of the data set: Cytotoxicity of hypohalous acids for mammalian cells (51Cr release, hemolysis). It counts as cell-based. Conditions: two hours exposure. Here is the method:
as §1

Data set [6] has as its system human EOs. The experiment in a line: EO-mediated nitration and bromination of HPA. The conditions noted are these: PMA-activated EOs; for EO-mediated nitration of HPA: 50 μM NO2^−, 100 μM Br^−. It is filed as cell-based. Here is the method: (§2) These studies were performed in the presence of CO2 (5% gas phase) and […] the medium (4.2 mM) to mimic a biologically relevant situation. Leukocytes ([…]) were incubated at 37° C. under 95% air, 5% CO2, in Medium A (Ca^2+/Mg^2+/phenol-free HBSS; Life Technologies, (Gaithersburg, Md.) supplemented with 100 μM NaBr, 50 μM L-arginine, and 200 μM DTPA, pH 7.4 final) in the absence or presence of NaNO2 (0<50 μM, as indicated in the figure legends). […] Cells were activated by addition of PMA (200 nM) and incubated for either 1 hour or the indicated time interval. In some experiments, EOs were activated in the presence of an exogenous NO source by addition of PAPA NONOate (Alexis) for 1 minute following PMA addition. Rates of NO flux were determined spectrophotometrically by reaction of NO with oxyhemoglobin as described in Baek et al. (Baek et al. (1993) J Biol Chem 268:21120) under the identical conditions used for experiments, but in the absence of any added cells. To maintain a final pH of 7.4 during experiments with PAPA NONOate, incubations were performed in Medium B (Medium A containing only 100 mM NaCl and supplemented with 20 mM sodium phosphate, pH 7.4). […] In some cases, leukocyte reaction mixtures also contained one of the following: 1 mM NaN3, 10 mM 3-aminotriazole (Atz), 300 nM catalase (Cat), 300 nM heat-inactivated catalase (hiCat), 10 μg/ml superoxide dismutase (SOD), 1 mM methionine (Met), or 1 mM N^α-acetyl lysine.
(§3) NO2—Y production by isolated EOs was quantified by reversed phase HPLC with photodiode array detection (see Wu et al. (1999) J Biol Chem 274:25933). […] The nitrated (NO2-HPA; 3-(4-hydroxy-3-nitrophenyl)propanoic acid), brominated (Br-HPA; 3-(3-bromo-4-hydroxyphenyl)propanoic acid), and chlorinated (Cl-HPA; 3-(3-chloro-4-hydroxyphenyl)propanoic acid) products of the tyrosine analog, HPA, were routinely quantified by reversed phase HPLC with electrochemical (coulometric) detection on an ESA CoulArray HPLC (Cambridge, Mass.) equipped with UV detector and electrochemical cells (eight channels) (Wu et al. (1999) J Biol Chem 274:25933). […] Authentic standards of NO2-HPA, Br-HPA, and Cl-HPA were prepared by reaction of HPA with a molar equivalent of ONOO^−, HOBr, or HOCl, respectively.
Use of this low molecular mass surrogate for a protein-bound tyrosine residue permitted more facile quantification of the relative capacity of EOs to promote aromatic nitration and halogenation reactions of phenolic targets.

For data set [7], the system named is human EOs. Nature of the data set: NO2—Y formation by activated human EOs. It is filed as cell-based. Conditions: agonist 100 nM, exogenous NO2^−. Here is the method:
as §2, with “HBSS;” for “HBSS; Life Technologies, (Gaithersburg, Md.) supplemented with 100 μM NaBr, 50 μM L-arginine, and 200 μM DTPA, pH 7.4 final) in the absence or presence of NaNO2 (0<50 μM, as indicated in the figure legends).”, “NO2—Y production by isolated EOs was quantified by reversed phase HPLC with photodiode array detection (see Wu et al. (1999) J Biol Chem 274:25933). […]” for “In some cases, leukocyte reaction mixtures also contained one of the following: 1 mM NaN3, 10 mM 3-aminotriazole (Atz), 300 nM catalase (Cat), 300 nM heat-inactivated catalase (hiCat), 10 μg/ml superoxide dismutase (SOD), 1 mM methionine (Met), or 1 mM N^α-acetyl lysine.”

In data set [8] the test system is activated EOs. Nature of the data set: NO2-HPA formation by activated EOs with exogenous NO donor. It is filed as cell-based, human. The protocol:
as §2, §3

In data set [9] the target is MPO (Homo sapiens, UniProt P05164). Conditions: pre-incubation of the enzyme solution.
Procedure: Initial experiments utilized an NO-selective electrode (ISO-NO Mark II, World Precision Instruments, Sarasota, Fla.) to determine whether NO serves as a general substrate for peroxidases. Reactions were performed under conditions where peroxidases were present in catalytic amounts Experiments were performed at 25° C. by immersing the electrode in 10 mL of 0.2 M sodium phosphate buffer, pH 7.0, under air. NO was added to continuously stirred buffer solution from an NO-saturated stock and the rise and fall in NO concentration was continuously monitored using a chart recorder. To determine the effect of H202 and peroxidases on NO levels during steady state catalysis, 10 μl H202 (100 μM final) and 50 μL enzyme (150 nM final) were added to the reaction mixture. Where indicated, solutions were supplemented with NaCl (100 mM) and/or a cell-free O2^.−-generating system comprised of lumazine (0.4 mm) and bovine milk xanthine oxidase (XO, Boehringer Mannheim).
To examine the potential physiological significance of these observations, the effect of additional substrates on peroxidase-catalyzed consumption of NO was examined. MPO was initially used as a model peroxidase because of its abundance at sites of leukocyte recruitment and activation during inflammation and its well-known use of the abundant halide Cl^− as substrate.
For data set [10], the target named is EPO (Homo sapiens, UniProt P11678).
Procedure: To determine the relative time courses of HOSCN and cyanate generation, H2O2 was added to a reaction mixture containing phosphate buffered saline (PBS) with 1 mM KSCN, pH 7.4, and 0.4 μM EPO. H2O2 was added by continuous infusion at 50 μM/minute for 20 minutes to simulate the continuous generation of H2O2 by the respiratory burst of an activated EO. An aliquot was (i) removed from the reaction mixture prior to and at various time intervals after initiating addition of H2O2, (ii) supplemented with 40 μg/mL catalase to consume unreacted H2O2, and (iii) placed on ice until subsequent assay of oxidants and cyanate as described.
H2O2 was continuously infused at 50 μM/minute for 20 minutes, simulating the continuous generation of H2O2 by the respiratory burst of an activated EO. Aliquots were removed from the reaction mixture at one-minute intervals and catalase was added to destroy excess unreacted H2O2 prior to assay of TNB-reactive substances and cyanate.
The test system of data set [11] is activated human EOs. Conditions: 5 mM azide.
Procedure: Purified EOs were washed, suspended at 4×10^6/mL in a modified Hank's balanced salt solution composed of 5.3 mM KCl, 138 mM NaCl, 0.4 mM potassium phosphate, 5.3 mM sodium phosphate, 5.5 mM D-glucose, 1.3 mM CaCl2, and 0.5 mM MgCl2, pH 7.4 supplemented with 1 mM KSCN. EOs were divided into three groups that were supplemented with (i) nothing (control), (ii)1 μg/mL phorbol 12-myristate 13-acetate (PMA), or (iii) 1 μg/mL PMA and 5 mM azide. EOs were then incubated at 37° C. for 60 minutes in capless 5 mL round-bottom tubes. The tubes were vortexed every 15 minutes to aid oxygenation. After the incubation, the samples were centrifuged for 10 minutes, 1000×g at 4° C. The supernatants were placed in Microcon concentrators (Amicon, Mass.) with membranes of 3000 Dalton molecular weight cut off and centrifuged for 30 minutes, 13,000×g at 4° C. to remove degranulated proteins. The filtrates were assayed for HOSCN and cyanate quantities.
As a gauge of the potential physiologic relevance of the above findings—all made with a purified reagent system—intact, activated human EOs were examined to determine whether HOSCN and OCN^− are generated. […]
Where [12] appears, read: high rates of NO flux (>2 μM/min).
The mark [13] stands for this setting: low rates of NO flux (<2 μM/min).

EPO, sequence (P11678 251-715 limits assumed): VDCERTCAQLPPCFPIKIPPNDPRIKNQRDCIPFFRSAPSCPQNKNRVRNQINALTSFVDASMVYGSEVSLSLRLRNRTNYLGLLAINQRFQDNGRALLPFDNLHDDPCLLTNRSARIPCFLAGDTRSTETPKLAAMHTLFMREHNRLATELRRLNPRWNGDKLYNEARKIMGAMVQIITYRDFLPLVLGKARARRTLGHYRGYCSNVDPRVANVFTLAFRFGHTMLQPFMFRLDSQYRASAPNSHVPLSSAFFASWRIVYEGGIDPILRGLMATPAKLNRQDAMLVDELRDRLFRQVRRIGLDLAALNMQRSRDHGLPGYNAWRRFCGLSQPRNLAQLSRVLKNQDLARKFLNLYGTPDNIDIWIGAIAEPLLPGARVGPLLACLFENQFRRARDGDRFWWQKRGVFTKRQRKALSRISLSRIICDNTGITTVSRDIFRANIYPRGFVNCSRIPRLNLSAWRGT
EPO, sequence (P11678 140-250 limits assumed): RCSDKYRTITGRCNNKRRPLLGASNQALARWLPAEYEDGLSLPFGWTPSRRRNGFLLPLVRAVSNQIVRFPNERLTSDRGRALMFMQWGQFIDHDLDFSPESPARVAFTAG
MPO, sequence (P05164 279-745 limits assumed): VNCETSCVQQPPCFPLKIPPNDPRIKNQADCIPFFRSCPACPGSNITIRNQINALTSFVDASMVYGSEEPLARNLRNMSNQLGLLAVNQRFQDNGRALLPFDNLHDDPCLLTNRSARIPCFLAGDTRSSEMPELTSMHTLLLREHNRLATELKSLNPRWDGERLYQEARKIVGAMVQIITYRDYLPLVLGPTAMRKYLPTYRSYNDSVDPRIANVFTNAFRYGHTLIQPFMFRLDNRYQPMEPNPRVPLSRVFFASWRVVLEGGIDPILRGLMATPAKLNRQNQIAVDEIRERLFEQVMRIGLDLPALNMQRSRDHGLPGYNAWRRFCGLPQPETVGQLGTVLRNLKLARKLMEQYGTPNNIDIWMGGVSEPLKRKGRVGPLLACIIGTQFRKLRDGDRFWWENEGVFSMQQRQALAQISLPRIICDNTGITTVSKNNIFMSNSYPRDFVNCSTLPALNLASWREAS
MPO, sequence (P05164 165-273 limits assumed): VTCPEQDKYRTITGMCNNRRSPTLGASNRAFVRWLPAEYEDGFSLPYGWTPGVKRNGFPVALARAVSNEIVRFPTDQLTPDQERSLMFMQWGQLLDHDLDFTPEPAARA

`O[C@H](CS)[C@H](O)CS` (racemic) [DTT, dithiothreitol]: the “GST, GAPDH and ATPase activity after OSCN^−/OCN^− exposure” value in data set [1] is recorded as “completely restored the activities of all three enzymes”.

As for `Br` [Br^−, bromide], the “levels of Br—Y and NO2—Y and severity of resulting asthma” value in [2] is “increase”.

As for `OO` [H2O2, hydrogen peroxide], in data set [3], the “inactivation of RBC ATPases” value is “failed to inactivate ATPases”.

With `OBr` [HOBr, hypobromous acid], in data set [4], the “toxicity for the parasite relative to host cells” value is listed as “equally toxic” and the LD50 for schistosomules is 10 µM. Further, the “LD50 for mammalian cells” value in [5] was in the range of 10 to 33 µM.

For `OCl` [HOCI, hypochlorous acid], in data set [4], the “toxicity for the parasite relative to host cells” value is reported as “equally toxic” and the LD50 for schistosomules came out at 10 µM. Further, the “LD50 for mammalian cells” value in data set [5] lay within 10 to 33 µM.

For `N#CSO` [HOSCN], in data set [4], the “toxicity for the parasite relative to host cells” value is 10-15 times and the LD50 for schistosomules was found to be 20 µM. Also, the “LD50 for mammalian cells” value in [5] fell in the range of 200 to 300 µM.

For `CC(=O)N[C@@H](CCCCN)C(=O)O` [N-acetyl lysine, N^α-acetyl lysine], the “cell-dependent bromination of HPA” value in data set [6] is “lack of inhibition”.

Take `CSCC[C@H](NC=O)C(=O)N[C@@H](CC(C)C)C(=O)N[C@@H](Cc1ccccc1)C(=O)O` [N-formyl-methionyl-leucyl-phenylalanine]: the “NO2—Y levels produced, less than with PMA-stimulated EOs” value in data set [7] was 8 fold.

With `O=NO` [NO2^−, nitrite], the “levels of Br—Y and NO2—Y and severity of resulting asthma” value in data set [2] is on record as “increase”.

As to `[N-]=[N+]=[N-].[Na+]` [azide, sodium azide], the values for the NO2-HPA formation entry in data set [8] (setting [12]) and in data set [8] (setting [13]) were “increasingly less sensitive to inhibition” and “inhibited”, respectively. In addition, in data set [9], the “NO consumption by MPO” value is recorded as “prevented”. For the same molecule, the “generation of both HOSCN and OCN^−” value in [10] (azide 1 mM) is recorded as “nearly completely blocked”. Also, the “HOSCN levels at plateau stage of progression curve” value in [10] (azide added during H2O2 infusion) was “abrupt collapse of HOSCN levels”. Moreover, in data set [11], the “PMA-stimulated generation of HOSCN and OCN^−” value is recorded as “severely attenuated”. Besides, the “EO-mediated nitration of HPA” value in data set [6] was “inhibited”.

Consider `CSCC[C@H](N)C(=O)O` [methionine], for which the “EO-mediated nitration of HPA” value in data set [6] was “inability of the HOBr scavenger methionine to affect nitration”.

B1: catalase: hydrogen peroxide scavenger (protein, UniProt P00432 2-527, looked up)
Catalase: ADNRDPASDQMKHWKEQRAAQKPDVLTTGGGNPVGDKLNSLTVGPRGPLLVQDVVFTDEMAHFDRERIPERVVHAKGAGAFGYFEVTHDITRYSKAKVFEHIGKRTPIAVRFSTVAGESGSADTVRDPRGFAVKFYTEDGNWDLVGNNTPIFFIRDALLFPSFIHSQKRNPQTHLKDPDMVWDFWSLRPESLHQVSFLFSDRGIPDGHRHMNGYGSHTFKLVNANGEAVYCKFHYKTDQGIKNLSVEDAARLAHEDPDYGLRDLFNAIATGNYPSWTLYIQVMTFSEAEIFPFNPFDLTKVWPHGDYPLIPVGKLVLNRNPVNYFAEVEQLAFDPSNMPPGIEPSPDKMLQGRLFAYPDTHRHRLGPNYLQIPVNCPYRARVANYQRDGPMCMMDNQGGAPNYYPNSFSAPEHQPSALEHRTHFSGDVQRFNSANDDNVTQVRTFYLKVLNEEQRKRLCENIAGHLKDAQLFIQKKAVKNFSDVHPEYGSRIQALLDKYNEEKPKNAVHTYVQHGSHLSAREKANL
B1: the NO2-HPA formation result is listed as “increasingly less sensitive to inhibition” in [8] (setting [12]) and “significantly attenuated” in data set [8] (setting [13]). Besides, in data set [6], the “EO-mediated nitration of HPA” value is listed as “inhibited”.

For the origin of these results see patent US20040028749A1, “Treating inflammation and associated complications” (priority 2000, published 2004).
